This note sets out measurements from patent US7750017B2, “Heterocycles” (Bayer Schering Pharma Aktiengesellschaft, priority 2004, dated 2010).

Molecules are shown by their SMILES. Structures can show the parent of a compound that is named as a salt.

For experiment [1], the system named is A431 cells [human epidermoid carcinoma, overexpressing HER1 (EGFR, ErbB1)]. Put plainly: In vitro tumor cell proliferation assay (Cell Titer-Glo luminescent cell viability), A431 cells. To be noted: A-431, 72 h, 72 hours of drug exposure, Cell Titer-Glo readout, read-out: IC50, anti-proliferative activity in A431 cells. In kind it is cell-based.
Experiment [2] has as its system BT474 [human breast carcinoma, overexpressing HER2 (ErbB2)]. Put plainly: In vitro tumor cell proliferation assay (Cell Titer-Glo luminescent cell viability), BT474 cells. In kind it is cell-based. Particulars: BT-474, 72 h, 72 hours of drug exposure, Cell Titer-Glo readout, read-out: IC50, anti-proliferative activity in BT474 cells. Background: In ATP-based viability assays light output follows the ATP content of the culture.

A word on the IC50: it is the concentration that inhibits the measured activity by half. As to `CCN1CCN(CCNC(=O)Cc2ccc3c(c2)sc2ncnc(Nc4ccc(OCc5cscn5)c(Cl)c4)c23)CC1` [Example 146, 2-(4-{[3-chloro-4-(1,3-thiazol-4-ylmethoxy)phenyl]amino}[1]benzothieno[2,3-d]pyrimidin-7-yl)-N-[2-(4-ethylpiperazin-1-yl)ethyl] acetamide], the concentration for half-maximal inhibition (IC50) in experiment [1] is at most 50 µM; in experiment [2], at most 0.5 µM.
Turning to `O=C(Cc1ccc2c(c1)sc1ncnc(Nc3ccc(OCc4ccccn4)c(Cl)c3)c12)NCCO` [Example 106, 2(4-{[3-chloro-4-(pyridin-2-ylmethoxy)phenyl]amino}[1]benzothieno[2,3-d]pyrimidin-7-yl)-N-(2-hydroxyethyl)acetamide], the IC50 was at most 50 µM in experiment [1] and at most 5 µM in experiment [2].
For `O=C(Cc1ccc2c(c1)sc1ncnc(Nc3ccc(OCc4cscn4)c(Cl)c3)c12)NCCCN1CCOCC1` [Example 139, 2-(4-{[3-chloro-4-(1,3-thiazol-4-ylmethoxy)phenyl]amino}[1]benzothieno[2,3-d]pyrimidin-7-yl)-N-(3-morpholin-4-ylpropyl) acetamide] the same measures were at most 50 µM and at most 5 µM.
For `CN(C)[C@H]1CCN(C(=O)CCc2ccc3c(c2)sc2ncnc(Nc4ccc(OCc5cccc(F)c5)c(Cl)c4)c23)C1` [Example 68, N-{3-chloro-4-[(3-fluorobenzyl)oxy]phenyl}-7-{3-[(3S)-3-(dimethylamino)pyrrolidin-1-yl]-3-oxopropyl} [1]benzothieno[2,3-d]pyrimidin-4-amine] the same measures were at most 5 µM and at most 5 µM.
For `OC[C@H](O)c1ccc2c(c1)sc1ncnc(Nc3ccc(OCc4cccc(F)c4)c(Cl)c3)c12` [Example 27, (1R)-1-[4-({3-chloro-4-[(3-fluorobenzyl)oxy]phenyl}amino) [1]benzothieno[2,3-d]pyrimidin-7-yl]ethane-1,2-diol] the same measures were at most 5 µM and at most 0.5 µM.
For the compound `O=C(Cc1ccc2c(c1)sc1ncnc(Nc3ccc(OCc4cccc(F)c4)c(Cl)c3)c12)N1CCNCC1` [Example 31, N-{3-chloro-4-[(3-fluorobenzyl)oxy]phenyl}-7-(2-oxo-2-piperazin-1-ylethyl)[1] benzothieno[2,3-d]pyrimidin-4-amine hydrochloride], the IC50 in experiment [1] is at most 5 µM; in experiment [2] it was at most 0.5 µM.
